Source: patent US20260250320A1, “LIPIDATED PEPTIDE INHIBITORS OF INTERLEUKIN-23 RECEPTOR” (Janssen Pharmaceutica NV, priority 2023, published 2026)
*1 amine or outer side, *2 acyl side, *3 side chain or, on linkers, in order; H or OH if unused. Where a SMILES comes first, the peptide text is derived from it. Bridges are numbered along the chain shown (N, C = ends). Side-chain parts run from the residue outwards. [ ]: non-standard residue; d: D form. The star is where a group is joined. X5 = O=C(O)CCCCCCCCCCCCCCCCC(=O)N[C@@H](CCC(=O)NC(=O)*)C(=O)O; Trp(7-Me) = Cc1cccc2c(C[C@H](N)C(=O)O)c[nH]c12; C18 diacid = O=C(O)CCCCCCCCCCCCCCCCC(=O)*; γGlu = O=C(O)[C@H](CCC(=O)[*:2])N[*:1]; 2Nal = N[C@@H](Cc1ccc2ccccc2c1)C(=O)O; AEF = NCCOc1ccc(C[C@H](N)C(=O)O)cc1; X2 = C[N+](C)(C)C[C@@H](CC(=O)O)N*; 3Pal = N[C@@H](Cc1cccnc1)C(=O)O; Pen = CC(C)(S)[C@H](N)C(=O)O; Suc = O=C(CCC(=O)[*:2])[*:1]; Thp = NC1(C(=O)O)CCOCC1; AEEA = NCCOCCOCC(=O)O; Sar = CNCC(=O)O

Legend:
IL-23R = biological target: T1, IL-23R (Homo sapiens, UniProt Q5VWK5); experiment: IL23R Reporter Assay; format: cell-based; settings: HEK293 cells containing IL-23R, IL-12Rβ1 and STAT-inducible firefly luciferase reporter; 10 ng/mL IL-23 (EC90); 5 h
T1 construct: HEK293 cells containing IL-23R, IL-12Rβ1 and a firefly luciferase reporter gene driven by a STAT-inducible promoter (Promega); host or cells: HEK293
T1 sequence (Q5VWK5 24-629): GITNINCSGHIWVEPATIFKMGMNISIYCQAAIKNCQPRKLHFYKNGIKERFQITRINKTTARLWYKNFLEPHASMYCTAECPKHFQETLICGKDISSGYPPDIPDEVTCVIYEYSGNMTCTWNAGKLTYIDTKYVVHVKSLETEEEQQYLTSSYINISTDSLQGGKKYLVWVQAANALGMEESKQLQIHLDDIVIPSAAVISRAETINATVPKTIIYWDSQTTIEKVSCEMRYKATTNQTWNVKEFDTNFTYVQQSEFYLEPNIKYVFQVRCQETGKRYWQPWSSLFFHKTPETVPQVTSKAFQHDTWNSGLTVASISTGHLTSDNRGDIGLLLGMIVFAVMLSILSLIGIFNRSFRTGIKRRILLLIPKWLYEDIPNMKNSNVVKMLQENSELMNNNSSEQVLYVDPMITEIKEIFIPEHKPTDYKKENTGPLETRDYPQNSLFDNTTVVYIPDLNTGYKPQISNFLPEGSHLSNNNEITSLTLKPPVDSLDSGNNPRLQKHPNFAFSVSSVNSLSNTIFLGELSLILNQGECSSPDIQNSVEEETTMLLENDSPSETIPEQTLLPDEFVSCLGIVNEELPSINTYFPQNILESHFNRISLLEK
How it was run: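 IC50 values were fitted with a 4-parameter Hill equation to luciferase signal, scaled between IL-23-only wells (0% inhibition) and 30 μM reference inhibitor (100%). The readout was a STAT-inducible reporter in IL-23R/IL-12Rβ1 HEK293 cells, stimulated with added 10 ng/mL IL-23 (EC90) for 5 h at 37° C and developed with BioGlo.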

[1] = test system: IL-23-stimulated phosphorylated STAT3 in peripheral blood mononuclear cells (PBMCs); experiment: PBMC pSTAT3 Assay; format: cell-based; settings: PBMCs from healthy donors; 30 min preincubation with peptide; IL-23 5 ng/mL for 30 min; phospho-STAT3 by MSD
Description: Cryopreserved peripheral blood mononuclear cells (PBMCs) from healthy donors were thawed and washed twice in ImmunoCult-XF T cell expansion medium (XF-TCEM) supplemented with CTL anti-aggregate wash. The cells were counted, resuspended at 2-6×10^5 cells per mL XF-TCEM supplemented with penicillin/streptomycin and 100 ng/mL […] (BioLegend, 579404), and cultured in tissue culture flasks coated with anti-CD3 (eBioscience, 16-0037-85 or BD Pharmingen, 555329) at 37° C. in 5% CO2. On day 4 of culture, PBMCs were collected, washed twice in RPMI-1640 supplemented with 0.1% BSA (RPMI-BSA), and incubated in RPMI-BSA in upright tissue culture flasks for ~4 hours at 37° C. in 5% CO2. Following this 'starvation,' a total of 6×10^4 cells in 30 μL RPMI-BSA was transferred into each well of a 384-well plate pre-spotted with peptide or DMSO. The cells were incubated for 30 minutes prior to the addition of […] at a final concentration of 5 ng/mL. The cells were stimulated with cytokine for 30 minutes at 37° C. in 5% CO2, transferred onto ice for 10 minutes, and lysed. Cell lysates were stored at -80° C. until phosphorylated STAT3 was measured using the phospho-STAT panel kit (Meso Scale Discovery, […]). Results are provided below. • A: IC50<0.5 nM; • B: 0.5 nM≤IC50<5 nM; • C: 5 nM≤IC50; • ND: Not determined

IC50 (IL-23R) [nM]	Compound	IC50 [1] [nM]
< 50	CC(=O)NCCCC[C@@H]1NC(=O)[C@H](Cc2c[nH]c3c(C)cccc23)NC(=O)[C@H]([C@@H](C)O)NC(=O)[C@H](CCCCNC(=O)CCC(=O)N[C@H](CC(=O)O)C[N+](C)(C)C)NC(=O)[C@@H](NC(=O)[C@@H](CCCNC(=N)N)NC(C)=O)C(C)(C)SSC(C)(C)[C@@H](C(=O)N[C@@H](Cc2ccc(OCCNC(=O)COCCOCCNC(=O)COCCOCCNC(=O)CC[C@H](NC(=O)CCCCCCCCCCCCCCCCC(=O)O)C(=O)O)cc2)C(=O)N[C@@H](Cc2ccc3ccccc3c2)C(=O)NC2(C(=O)N[C@@H](CCC(=O)O)C(=O)N[C@@H](CC(N)=O)C(=O)N[C@@H](Cc3cccnc3)C(=O)N(C)CC(N)=O)CCOCC2)NC1=O [compound 10, MeCO-r-Pen(3)-K(d)-T-7MeW-K(Ac)-Pen(3)-AEF(PEG2PEG2gEC18OH)-2Nal-THP-E-N-3Pya-Sar-CONH2] (Ac-[dR][Pen]K([Suc-X2])T[Trp(7-Me)]K(Ac)[Pen][AEF]([AEEA-AEEA-γGlu-C18 diacid])[2Nal][Thp]EN[3Pal][Sar]-NH2; disulfide 2-7)	0.5 to 5
50 to 500	CC(=O)NCCCC[C@@H]1NC(=O)[C@H](Cc2c[nH]c3c(C)cccc23)NC(=O)[C@H]([C@@H](C)O)NC(=O)[C@H](CC(N)=O)NC(=O)[C@@H](NC(=O)[C@@H](CCCNC(=N)N)NC(=O)CCC(=O)N[C@H](CC(=O)O)C[N+](C)(C)C)C(C)(C)SSC(C)(C)[C@@H](C(=O)N[C@@H](Cc2ccc(OCCNC(=O)COCCOCCNC(=O)COCCOCCNC(=O)NC(=O)CC[C@H](NC(=O)CCCCCCCCCCCCCCCCC(=O)O)C(=O)O)cc2)C(=O)N[C@@H](Cc2ccc3ccccc3c2)C(=O)NC2(C(=O)N[C@@H](CCC(=O)O)C(=O)N[C@@H](CC(N)=O)C(=O)N[C@@H](Cc3cccnc3)C(=O)N(C)CC(N)=O)CCOCC2)NC1=O [compound 11, succiniccarn-r-Pen(3)-N-T-7MeW-K(Ac)-Pen(3)-AEF(PEG2PEG2gEC18OH)-2Nal-THP-E-N-3Pya-Sar-CONH2] ({X2-Suc}-[dR][Pen]NT[Trp(7-Me)]K(Ac)[Pen][AEF]([AEEA-AEEA-X5])[2Nal][Thp]EN[3Pal][Sar]-NH2; disulfide 2-7)	0.5 to 5
< 50	CC(=O)NCCCC[C@@H]1NC(=O)[C@H](Cc2c[nH]c3c(C)cccc23)NC(=O)[C@H]([C@@H](C)O)NC(=O)[C@H](CCCCNC(=O)COCCOCCNC(=O)COCCOCCNC(=O)CC[C@H](NC(=O)CCCCCCCCCCCCCCCCC(=O)O)C(=O)O)NC(=O)[C@@H](NC(=O)[C@@H](CCCNC(=N)N)NC(C)=O)C(C)(C)SSC(C)(C)[C@@H](C(=O)N[C@@H](Cc2ccc(OCCN)cc2)C(=O)N[C@@H](Cc2ccc3ccccc3c2)C(=O)NC2(C(=O)N[C@@H](CCCCNC(=O)CCC(=O)N[C@H](CC(=O)O)C[N+](C)(C)C)C(=O)N[C@@H](CC(N)=O)C(=O)N[C@@H](Cc3cccnc3)C(=O)N(C)CC(N)=O)CCOCC2)NC1=O [compound 12, MeCO-r-Pen(3)-K(PEG2PEG2gEC18OH)-T-7MeW-K(Ac)-Pen(3)-AEF-2Nal-THP-K(d)-N-3Pya-Sar-CONH2] (Ac-[dR][Pen]K([AEEA-AEEA-γGlu-C18 diacid])T[Trp(7-Me)]K(Ac)[Pen][AEF][2Nal][Thp]K([Suc-X2])N[3Pal][Sar]-NH2; disulfide 2-7)	0.5 to 5
50 to 500	CC(=O)N[C@H](CCCNC(=N)N)C(=O)N[C@@H]1C(=O)N[C@@H](CC(N)=O)C(=O)N[C@@H]([C@@H](C)O)C(=O)N[C@@H](Cc2c[nH]c3c(C)cccc23)C(=O)N[C@@H](CCCCNC(=O)CCC(=O)N[C@H](CC(=O)O)C[N+](C)(C)C)C(=O)N[C@H](C(=O)N[C@@H](Cc2ccc(OCCNC(=O)COCCOCCNC(=O)COCCOCCNC(=O)CC[C@H](NC(=O)CCCCCCCCCCCCCCCCC(=O)O)C(=O)O)cc2)C(=O)N[C@@H](Cc2ccc3ccccc3c2)C(=O)NC2(C(=O)N[C@@H](CCC(=O)O)C(=O)N[C@@H](CC(N)=O)C(=O)N[C@@H](Cc3cccnc3)C(=O)N(C)CC(N)=O)CCOCC2)C(C)(C)SSC1(C)C [compound 13, MeCO-r-Pen(3)-N-T-7MeW-K(d)-Pen(3)-AEF(PEG2gEC18OH)-2Nal-THP-E-N-3Pya-Sar-CONH2] (Ac-[dR][Pen]NT[Trp(7-Me)]K([Suc-X2])[Pen][AEF]([AEEA-AEEA-γGlu-C18 diacid])[2Nal][Thp]EN[3Pal][Sar]-NH2; disulfide 2-7)	0.5 to 5
50 to 500	CC(=O)NCCCC[C@@H]1NC(=O)[C@H](Cc2c[nH]c3c(C)cccc23)NC(=O)[C@H]([C@@H](C)O)NC(=O)[C@H](CCCCNC(=O)COCCOCCNC(=O)COCCOCCNC(=O)CC[C@H](NC(=O)CCCCCCCCCCCCCCCCC(=O)O)C(=O)O)NC(=O)[C@@H](NC(C)=O)C(C)(C)SSC(C)(C)[C@@H](C(=O)N[C@@H](Cc2ccc(OCCN)cc2)C(=O)N[C@@H](Cc2ccc3ccccc3c2)C(=O)NC2(C(=O)N[C@@H](CCCCNC(=O)CCC(=O)N[C@H](CC(=O)O)C[N+](C)(C)C)C(=O)N[C@@H](CC(N)=O)C(=O)N[C@@H](Cc3cccnc3)C(=O)N(C)CC(N)=O)CCOCC2)NC1=O [compound 15, MeCO-r-Pen(3)-N-T-7MeW-K(PEG2PEG2gEC18OH)-Pen(3)-AEF-2Nal-THP-K(d)-N-3Pya-Sar-CONH2] (Ac-[Pen]K([AEEA-AEEA-γGlu-C18 diacid])T[Trp(7-Me)]K(Ac)[Pen][AEF][2Nal][Thp]K([Suc-X2])N[3Pal][Sar]-NH2; disulfide 1-6)	0.5 to 5
50 to 500	CC(=O)NCCCC[C@@H]1NC(=O)[C@H](Cc2c[nH]c3c(C)cccc23)NC(=O)[C@H]([C@@H](C)O)NC(=O)[C@H](CCCCNC(=O)COCCOCCNC(=O)COCCOCCNC(=O)CC[C@H](NC(=O)CCCCCCCCCCCCCCCCC(=O)O)C(=O)O)NC(=O)[C@@H](NC(=O)[C@@H](CCCNC(=N)N)NC(=O)CCC(=O)N[C@H](CC(=O)O)C[N+](C)(C)C)C(C)(C)SSC(C)(C)[C@@H](C(=O)N[C@@H](Cc2ccc(OCCN)cc2)C(=O)N[C@@H](Cc2ccc3ccccc3c2)C(=O)NC2(C(=O)N[C@@H](CCC(=O)O)C(=O)N[C@@H](CC(N)=O)C(=O)N[C@@H](Cc3cccnc3)C(=O)N(C)CC(N)=O)CCOCC2)NC1=O [compound 18, succiniccarn-r-Pen(3)-K(PEG2PEG2gEC18OH)-T-7MeW-K(Ac)-Pen(3)-AEF-2Nal-THP-E-N-3Pya-Sar-CONH2] ({X2-Suc}-[dR][Pen]K([AEEA-AEEA-γGlu-C18 diacid])T[Trp(7-Me)]K(Ac)[Pen][AEF][2Nal][Thp]EN[3Pal][Sar]-NH2; disulfide 2-7)	< 0.5
50 to 500	Cc1cccc2c(C[C@@H]3NC(=O)[C@H]([C@@H](C)O)NC(=O)[C@H](CC(N)=O)NC(=O)[C@@H](NC(=O)[C@@H](CCCNC(=N)N)NC(=O)CCC(=O)N[C@H](CC(=O)O)C[N+](C)(C)C)C(C)(C)SSC(C)(C)[C@@H](C(=O)N[C@@H](Cc4ccc(OCCN)cc4)C(=O)N[C@@H](Cc4ccc5ccccc5c4)C(=O)NC4(C(=O)N[C@@H](CCC(=O)O)C(=O)N[C@@H](CC(N)=O)C(=O)N[C@@H](Cc5cccnc5)C(=O)N(C)CC(N)=O)CCOCC4)NC(=O)[C@H](CCCCNC(=O)COCCOCCNC(=O)COCCOCCNC(=O)CC[C@H](NC(=O)CCCCCCCCCCCCCCCCC(=O)O)C(=O)O)NC3=O)c[nH]c12 [compound 19, MeCO-r-Pen(3)-N-T-7MeW-K(PEG2PEG2gEC18OH)-Pen(3)-AEF-2Nal-THP-E-N-3Pya-NMeK(d)-CONH2] ({X2-Suc}-[dR][Pen]NT[Trp(7-Me)]K([AEEA-AEEA-γGlu-C18 diacid])[Pen][AEF][2Nal][Thp]EN[3Pal][Sar]-NH2; disulfide 2-7)	< 0.5
